Measured values published in ChEMBL document CHEMBL5550185, “Targeting hTERT Promoter G-Quadruplex DNA Structures with Small-Molecule Ligand to Downregulate hTERT Expression for Triple-Negative Breast Cancer Therapy” (J Med Chem, 2024).
The source made the active and inactive calls. The calls are words filed in the database; no cut-off is given here.

Columns and labels:
Quadruplex DNA [1] = test: Binding affinity to human TERT G4 DNA in Tris-HCl buffer at pH 7.4 assessed as fold increase in fluorescence signal at 5 uM by fluorescence spectrometer relative to control; format: nucleic-acid assay
DNA [2] = test: Binding affinity to Dt21 ssDNA (unknown origin) assessed as thermal stability by measuring change in melting temperature at 400 uM […]; format: nucleic-acid assay
DNA [3] = test: Binding affinity to Ds26 duplex DNA (unknown origin) assessed as change in gibbs free energy at 400 uM by ITC analysis; format: nucleic-acid assay
Quadruplex DNA [4] = test: Binding affinity to VEGF G4 DNA (unknown origin) assessed as thermal stability by measuring change in melting temperature at 400 uM […]; format: nucleic-acid assay
HeLa = test: Cytotoxicity against telomerase-positive human HeLa cells assessed as inhibition of cell growth incubated for 48 hrs by MTT assay; format: functional, cell-based
Quadruplex DNA [5] = test: Binding affinity to CKIT-2 G4 DNA (unknown origin) assessed as dissociation constant by ITC analysis; format: nucleic-acid assay
Quadruplex DNA [6] = test: Binding affinity to c-MYC Pu27 G4 DNA (unknown origin) assessed as change in gibbs free energy at 400 uM by ITC analysis; format: nucleic-acid assay
A549 = test: Cytotoxicity against telomerase-positive human A549 cells assessed as inhibition of cell growth incubated for 48 hrs by MTT assay; format: functional, cell-based; settings: A549, 48 h
Quadruplex DNA [7] = test: Binding affinity to Bcl-2 G4 DNA (unknown origin) assessed as dissociation constant by ITC analysis; format: nucleic-acid assay
Quadruplex DNA [8] = test: Binding affinity to hTERT G4 DNA assessed as dissociation constant by ITC analysis; format: nucleic-acid assay, Homo sapiens
[9] = Selectivity ratio of binding affinity to human TERT G4 DNA to binding affinity to Ckit-2 G4 DNA (unknown origin)
[10] = Selectivity ratio of binding affinity to human TERT G4 DNA to binding affinity to Pu27 G4 DNA (unknown origin)
[11] = Selectivity ratio of binding affinity to human TERT G4 DNA to binding affinity to Ds26 duplex DNA (unknown origin)
MDA-MB-231 [12] = test: Cytotoxicity against telomerase-positive human MDA-MB-231 cells assessed as inhibition of cell growth incubated for 48 hrs by MTT assay; format: functional, cell-based; settings: MDA-MB-231, 48 h
[13] = Drug localization in nucleus of telomerase-positive human MDA-MB-231 cells at 5 uM incubated for 10 mins by Hoechst 33342 staining based confocal microscopic analysis; format: ADME, subcellular; settings: mda-mb-231, 10 min
DNA [14] = test: Binding affinity to DNA in telomerase-positive live human MDA-MB-231 cells at 5 uM preincubated for 10 mins followed by washout and RNase A addition measured after 2 hrs by Hoechst 33342 staining based confocal microscopic analysis; format: cell-based
MDA-MB-231 [15] = test: Downregulation of CTCF mRNA expression in human MDA-MB-231 cells at 0 to 1.5 uM measured after 48 hrs by qRT-PCR analysis; format: functional, cell-based; settings: dose 0-1.5 µM
MDA-MB-231 [16] = test: Downregulation of c-MYC mRNA expression in human MDA-MB-231 cells at 0 to 1.5 uM measured after 48 hrs by qRT-PCR analysis; format: functional, cell-based; settings: dose 0-1.5 µM
MDA-MB-231 [17] = test: Induction of telomere dysfunction in human MDA-MB-231 cells assessed as telomer length shortening effect at 0.2 uM measured after 10 days by qRT-PCR analysis; format: functional, cell-based; settings: time 10.0 day
MDA-MB-231 [18] = test: Inhibition of cell migration in human MDA-MB-231 cells at 0 to 1.5 uM measured after 48 hrs by crystal violet staining based microscopic analysis; format: functional; settings: dose 0-1.5 µM
MDA-MB-231 [19] = test: Disruption of energy metabolism in human MDA-MB-231 cells assessed as increase in ECAR at 0 to 1.5 uM measured after 2 hrs by Seahorse XF24 analyzer; format: functional, cell-based; settings: dose 0-1.5 µM
MDA-MB-231 [20] = test: Downregulation of LC3-I protein expression in human MDA-MB-231 cells at 0 to 1.5 uM measured after 48 hrs by Western blot analysis; format: functional, cell-based; settings: dose 0-1.5 µM
[21] = Upregulation of PLK2 gene expression in human MDA-MB-231 cells assessed as fold change at 1 uM measured after 48 hrs by RNA-seq analysis relative to control; format: functional
[22] = Upregulation of CCNB2 gene expression in human MDA-MB-231 cells assessed as fold change at 1 uM measured after 48 hrs by RNA-seq analysis relative to control; format: functional
[23] = Upregulation of SGK1 gene expression in human MDA-MB-231 cells assessed as fold change at 1 uM measured after 48 hrs by RNA-seq analysis relative to control; format: functional
[24] = Upregulation of TGFB3 gene expression in human MDA-MB-231 cells assessed as fold change at 1 uM measured after 48 hrs by RNA-seq analysis relative to control; format: functional
[25] = Upregulation of HLA-C gene expression in human MDA-MB-231 cells assessed as fold change at 1 uM measured after 48 hrs by RNA-seq analysis relative to control; format: functional
[26] = Upregulation of MAPK13 gene expression in human MDA-MB-231 cells assessed as fold change at 1 uM measured after 48 hrs by RNA-seq analysis relative to control; format: functional
[27] = Upregulation of SAT2 gene expression in human MDA-MB-231 cells assessed as fold change at 1 uM measured after 48 hrs by RNA-seq analysis relative to control; format: functional
[28] = Toxicity in female Balb/c nude mouse xenografted with human MDA-MB-231 cells assessed as signs of ulcer at 2 to 5 mg/kg, iv administered via tail vein every 2 days for 16 days; format: organism-based; settings: in vivo, 384 h, dose 2-5 mg/kg, time 16 day
[29] = Toxicity in female Balb/c nude mouse xenografted with human MDA-MB-231 cells assessed as signs of discomfort at 2 to 5 mg/kg, iv administered via tail vein every 2 days for 16 days; format: organism-based; settings: in vivo, 384 h, dose 2-5 mg/kg, time 16 day
MDA-MB-231 [30] = test: Antitumor activity against human MDA-MB-231 cells xenografted in female Balb/c mouse assessed as reduction in tumor volume at 5 mg/kg, iv administered via tail vein every 2 days for 16 days relative to control; format: functional; parameters: scale not given: the % may be the effect or the level left; settings: time 16 day
[31] = Toxicity in female Balb/c nude mouse xenografted with human MDA-MB-231 cells assessed as change in creatinine level at 2 to 5 mg/kg, iv administered via tail vein every 2 days for 16 days; format: organism-based; settings: in vivo, 384 h, dose 2-5 mg/kg, time 16 day
[32] = Toxicity in female Balb/c nude mouse xenografted with human MDA-MB-231 cells assessed as change in uric acid level at 2 to 5 mg/kg, iv administered via tail vein every 2 days for 16 days; format: organism-based; settings: in vivo, 384 h, dose 2-5 mg/kg, time 16 day
[33] = Toxicity in female Balb/c nude mouse xenografted with human MDA-MB-231 cells assessed as change in mean corpuscular hemoglobin concentration at 2 to 5 mg/kg, iv administered via tail vein every 2 days for 16 days; format: organism-based; settings: in vivo, 384 h, dose 2-5 mg/kg, time 16 day
[34] = Toxicity in female Balb/c nude mouse xenografted with human MDA-MB-231 cells assessed as change in hemoglobin concentration at 2 to 5 mg/kg, iv administered via tail vein every 2 days for 16 days; format: organism-based; settings: in vivo, 384 h, dose 2-5 mg/kg, time 16 day
[35] = Toxicity in female Balb/c nude mouse xenografted with human MDA-MB-231 cells assessed as change in platelet count at 2 to 5 mg/kg, iv administered via tail vein every 2 days for 16 days; format: organism-based; settings: in vivo, 384 h, dose 2-5 mg/kg, time 16 day

- fold change (FC) (Quadruplex DNA [1]): 29
- ΔTm (DNA [2]): -2.51 °C
- deltaG (DNA [3]): -6.45 kcal/mol
- ΔTm (Quadruplex DNA [4]): 0.72 °C
- Kd (Quadruplex DNA [5]): 6.8 µM
- deltaG (Quadruplex DNA [6]): -6.59 kcal/mol
- Kd (Quadruplex DNA [7]): 3.61 µM
- Kd (Quadruplex DNA [8]): 1140 nM
- Selectivity ratio [9]: 2
- Selectivity ratio [10]: 2
- Selectivity ratio [11]: 3
- Drug uptake [13]: Active
SMILES: C[n+]1c(/C=C/c2c[nH]c3ccccc23)cc(/C=C2\Sc3ccccc3N2CCCN2CCC(C(F)(F)F)CC2)c2ccccc21.[I-]
- IC50 (HeLa): 2600 nM
- IC50 (A549): 2100 nM
- IC50 (MDA-MB-231 [12]): 1000 nM
- Activity (DNA [14]): Active
- Activity (MDA-MB-231 [15]): inactive
- Activity (MDA-MB-231 [16]): inactive
- Activity (MDA-MB-231 [17]): Active
- inhibition (MDA-MB-231 [18]): Active
- Activity (MDA-MB-231 [19]): Active
- Activity (MDA-MB-231 [20]): Active
- fold change (FC) [21]: >2
- fold change (FC) [22]: >2
- fold change (FC) [23]: >2
- fold change (FC) [24]: >2
- fold change (FC) [25]: >2
- fold change (FC) [26]: >2
- fold change (FC) [27]: >2
- Activity [28]: Non-Toxic
- Activity [29]: Non-Toxic
- Activity (MDA-MB-231 [30]): 78.5%
- Activity [31]: Non-Toxic
- Activity [32]: Non-Toxic
- Activity [33]: Non-Toxic
- Activity [34]: Non-Toxic
- Activity [35]: Non-Toxic
